Consider three compounds from patent US20060292255A1, “Pharmaceutical and therapeutic compositions derived from Garcinia mangostana L plant” (priority 2004, published 2006).

In one series the test system is cAMP phosphodiesterase. The following applies: Chairungsrilerd and Takeuchi et al., 1996; cited from earlier work.
In another series the target is COX 1 (Homo sapiens, UniProt P23219). The settings on record: Nakatani et al., 2002, 2004; cited from earlier work.
The next series has as its system DNA topoisomerase. The settings on record: Tosa et al., 1997; cited from earlier work.
Another series concerns serotonin receptors. The settings on record: Chairungsrilerd et al., 1996, 1998; cited from earlier work.
The subject of series [1] is L-929 mouse fibroblast cells. As to the kind of experiment: Toxicity Study 1: cytotoxicity of serially diluted extract, microscopic scoring. The class given is cell-based. The settings on record: control media/extracts undiluted; triplicate wells. The protocol: The purpose of this study was to evaluate an extract of mangosteen for its level of cytotoxicity in a mammalian system. Accordingly, a serially diluted extract of a 10% mangosteen pericarp test article for cytotoxicity to mammalian cells in culture (L-929 mouse fibroblast cells, from the American Type Culture Collection: CCL-1). The test article, originally a 10% mangosteen preparation) was incubated in an appropriate volume of cell culture medium (Earle's Minimal Essential Medium, E-MEM) in a sterile vessel for 24 to 25 hours at 37 ±1° C. At the end of the extraction period, the extract was decanted from the test article. A series of eight (8) dilutions of the extract was prepared in culture medium in a two-fold dilution sequence. After the dilutions were prepared, the maintenance culture medium was removed from test culture wells and replaced with 1 ml of article test dilutions. […] The cultures were evaluated for cytotoxic effects by microscopic examination at 24, 48, and 72±4 hours of incubation, and the results scored and recorded. […]
Criteria for evaluating cytotoxicity included morphologic changes in cells, such as granulation, crenation, or rounding, and loss of viable cells from the monolayer by lysis or detachment. […] Degrees of toxicity are scored according to the scheme in Table 2: […]

Series [2] deals with mammalian cells in culture. As to the kind of experiment: Toxicity Study 2: cytotoxicity of serially diluted extract, microscopic scoring. The settings on record: control media/extracts undiluted. The class given is cell-based. The protocol:
The purpose of this study was to evaluate a serially diluted extract of a 40% mangosteen pericarp test article for cytotoxicity to mammalian cells in culture. The test article was incubated in an appropriate volume of E-MEM in a sterile vessel for 24 to 25 hours at 37 f 1° C. After measures were taken to create a clear supernatant, a series of eight (8) dilutions of the extract were prepared in E-MEM in a two-fold dilution sequence. After the dilutions were prepared, the maintenance culture media was removed from test culture wells and replaced with 1 ml of test media dilutions in triplicate wells. The positive control media, test article extract, and control extracts were added at the same time to the culture plate in triplicate wells. The plates were incubated for 72 hours at 37±1° C. in a humidified atmosphere of 5±1% CO2 in air. The cultures were evaluated for cytotoxic effects by microscopic examination at 24,48 and 72±4 hours of incubation and the results scored and recorded. After the 24 hour extraction the liquid was transferred to a 50 mL conical tube and centrifuged for 10 minutes at 3000 rpm. A small pellet of powder created by the separation was discarded, the resultant supernatant was clear with a light brown color and a pH of 7.5.
Criteria for evaluating cytotoxicity included morphologic changes in cells, such as granulation, crenation, or rounding, and loss of viable cells from the monolayer by lysis or detachment. The validity of the test requires that negative control cultures maintain a healthy normal appearance throughout the duration of the test. Degrees of toxicity are scored as in Table 1, above: […]

Sequence of COX 1 (P23219 24-599): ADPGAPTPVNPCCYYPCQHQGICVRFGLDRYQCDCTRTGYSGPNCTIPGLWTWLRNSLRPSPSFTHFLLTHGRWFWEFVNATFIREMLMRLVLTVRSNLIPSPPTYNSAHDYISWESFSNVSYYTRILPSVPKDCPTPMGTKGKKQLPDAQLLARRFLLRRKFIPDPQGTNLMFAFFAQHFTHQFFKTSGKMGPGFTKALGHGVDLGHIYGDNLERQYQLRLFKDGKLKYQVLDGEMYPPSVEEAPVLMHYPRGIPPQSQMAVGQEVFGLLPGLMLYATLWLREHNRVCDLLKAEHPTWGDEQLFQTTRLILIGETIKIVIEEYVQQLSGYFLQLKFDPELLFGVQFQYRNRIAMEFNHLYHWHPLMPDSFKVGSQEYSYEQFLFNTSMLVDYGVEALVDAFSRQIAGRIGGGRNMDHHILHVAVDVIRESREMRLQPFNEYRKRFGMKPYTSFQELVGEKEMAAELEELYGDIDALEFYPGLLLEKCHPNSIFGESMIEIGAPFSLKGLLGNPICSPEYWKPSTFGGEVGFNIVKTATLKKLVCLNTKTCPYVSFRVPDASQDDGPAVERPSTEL

In the case of `COc1c(O)cc2oc3cc4c(c(O)c3c(=O)c2c1CC=C(C)C)CC(O)C(C)(C)O4` (centres unmarked) [Mangostanol], the “inhibition of cAMP phosphodiesterase” value in the series with cAMP phosphodiesterase is given as “strong inhibition”.

For `CC(C)=CCc1c(O)cc2oc3cc(O)c(O)c(CC=C(C)C)c3c(=O)c2c1O` [gamma-mangostin], the “inhibition of the activity of cyclooxygenase COX 1” value at COX 1 is on record as “directly inhibit the activity”. In the series with DNA topoisomerase, the “inhibition of DNA topoisomerase” value is recorded as “inhibits”. Further, the “action on serotonin receptors” value with serotonin receptors is given as “antagonist”.

As for `[Cl][Cd][Cl]` [Positive Control, CdCl2], the “Cytotoxicity Scores at 72 Hr” value in series [1] is reported as 4/4/4. Further, in series [2], the “Cytoxicity Scores 24 Hr” value is 4/4/4, the “Cytoxicity Scores 48 Hr” value is recorded as 4/4/4 and the “Cytoxicity Scores 72 Hr” value was 4/4/4.
